# Experimental data reported in publication PMC10120551, “Novel Glu-based pyrazolo[3,4-d]pyrimidine analogues: design, synthesis and biological evaluation as DHFR and TS dual inhibitors” (Journal of Enzyme Inhibition and Medicinal Chemistry, 2023).
# Experiments:
# [1] = tested on: UACC-62; experiment: cells; details: Homo sapiens
# [2] = tested on: COLO 205; experiment: cells; details: Homo sapiens
# [3] = tested on: SR; experiment: cells; details: Homo sapiens
# [4] = tested on: U251; details: U251, CNS cancer; five-dose 0.01–100 µM
# [5] = tested on: UO-31; details: UO-31, Renal cancer; five-dose 0.01–100 µM
# [6] = tested on: CCRF-CEM; experiment: cells; details: Homo sapiens
# [7] = tested on: CAKI-1; details: CAKI-1, Renal cancer; five-dose 0.01–100 µM
# [8] = tested on: 786-0; details: 786-0, Renal cancer; five-dose 0.01–100 µM
# [9] = tested on: SNB-75; details: SNB-75, CNS cancer; five-dose 0.01–100 µM
# [10] = tested on: TK-10; details: TK-10, Renal cancer; five-dose 0.01–100 µM
# [11] = tested on: COLO 205; details: COLO 205, Colon cancer; five-dose 0.01–100 µM
# [12] = tested on: HCT-15; experiment: cells; details: Homo sapiens
# [13] = tested on: SNB-19; details: SNB-19, CNS cancer; five-dose 0.01–100 µM
# [14] = tested on: M14; details: M14, Melanoma; five-dose 0.01–100 µM
# [15] = tested on: HSF (Normal human skin fibroblast) cells; experiment: MTT cytotoxicity assay; type: cell-based; details: HSF normal fibroblasts, 48 h, mean ± SD from triplicates
# Method: The results hinted that 6i elicited stronger cytotoxicity and higher selectivity for cancer than normal cells.
# The MTT assay was carried out according to the procedure cited earlier. Briefly, in a 96-well plate, either cancer or normal cells were seeded (10^6 cells/cm^2; 100 µL/well) and incubated for 12 h at 37 °C and CO2 (5%), then serial dilutions of compound 6i were added and incubated for 48 h using DMSO control (0.5% V/V). MTT (3-(4,5-dimethylthiazoyl)-2,5-diphenyl-tetrazolium bromide; Cat. No. M-5655) 5 mg/mL was then added. After 4 h incubation, the formed MTT formazan crystals were solubilised by 10% Triton X-100 plus 0.1 N HCl in anhydrous isopropanol. The absorbance was read using a Bioline plate reader at λ570–630 nm[25–29]. The selectivity of 6i towards HSF cells was also determined as follows[30]^,[31]: SI=IC50HSF cells/IC50of cancer cells
# [16] = tested on: SK-MEL-5; experiment: cells; details: Homo sapiens
# [17] = tested on: NCI-H226; experiment: cells; details: Homo sapiens
# [18] = tested on: SN12C; details: Renal cancer, five-dose 0.01–100 µM
# [19] = tested on: HT29; experiment: cells; details: Homo sapiens
# [20] = tested on: RXF 393; details: RXF 393, Renal cancer; five-dose 0.01–100 µM
# [21] = tested on: SK-MEL-28; experiment: cells; details: Homo sapiens
# [22] = tested on: SW-620; experiment: cells; details: Homo sapiens
# [23] = tested on: OVCAR-5; details: OVCAR-5, Ovarian cancer; five-dose 0.01–100 µM
# [24] = tested on: OVCAR-3; experiment: cells; details: Homo sapiens
smiles,measurement,setting,value
CCOC(=O)CC[C@H](NC(=O)c1ccc(NC(=O)Cn2cnc3c(c(C)nn3-c3ccc(Br)cc3)c2=O)cc1)C(=O)OCC [Compound 6i],GI50,[1]; UACC-62,13.3 µM
same,CC50,"[1]; UACC-62, read-out: LC50",77.8 µM
same,GI50,[2]; COLO 205,14 µM
same,CC50,"[2]; COLO 205, read-out: LC50",96 µM
same,GI50,[3],71 µM
same,CC50,[3]; read-out: LC50,> 100 µM
same,TGI,[4],>100 µM
same,TGI,[5],55.9 µM
same,GI50,[6],14.5 µM
same,CC50,[6]; read-out: LC50,> 100 µM
same,TGI,[7],22.1 µM
same,TGI,[8],>100 µM
same,TGI,[9],40.9 µM
same,TGI,[10],86.2 µM
same,TGI,[11],36.7 µM
same,GI50,[12]; HCT-15,26 µM
same,CC50,"[12]; HCT-15, read-out: LC50",> 100 µM
same,TGI,[13],27.3 µM
same,TGI,[14],>100 µM
same,IC50,[15],48.5 ± 2.43 µM
same,GI50,[16]; SK-MEL-5,19.4 µM
same,CC50,"[16]; SK-MEL-5, read-out: LC50",95.8 µM
same,GI50,[17],4.54 µM
same,TGI,[18],>100 µM
same,GI50,[19]; HT-29,18.4 µM
same,CC50,"[19]; HT-29, read-out: LC50",> 100 µM
same,TGI,[20],50.9 µM
same,GI50,[21]; SK-MEL-28,10.1 µM
same,CC50,"[21]; SK-MEL-28, read-out: LC50",50.2 µM
same,GI50,[22]; SW-620,8.98 µM
same,CC50,"[22]; SW-620, read-out: LC50",> 100 µM
same,TGI,[23],56.3 µM
same,GI50,[24]; OVCAR-3,11.7 µM
same,CC50,"[24]; OVCAR-3, read-out: LC50",> 100 µM
